Experimental data from article doi:10.1101/625897v2 (biorxiv, 2019).

Tests used:
Assay in all cases: inside-out patch clamp, Cl- current stimulation
ANO1 (TMEM16A; mTMEM16A) [1] = molecular target: T1, ANO1 (TMEM16A; mTMEM16A) (Mus musculus, UniProt Q8BHY3); format: biochemical; details: +100 mV, 270 nM Ca2+
T1 sequence (Q8BHY3 1-960): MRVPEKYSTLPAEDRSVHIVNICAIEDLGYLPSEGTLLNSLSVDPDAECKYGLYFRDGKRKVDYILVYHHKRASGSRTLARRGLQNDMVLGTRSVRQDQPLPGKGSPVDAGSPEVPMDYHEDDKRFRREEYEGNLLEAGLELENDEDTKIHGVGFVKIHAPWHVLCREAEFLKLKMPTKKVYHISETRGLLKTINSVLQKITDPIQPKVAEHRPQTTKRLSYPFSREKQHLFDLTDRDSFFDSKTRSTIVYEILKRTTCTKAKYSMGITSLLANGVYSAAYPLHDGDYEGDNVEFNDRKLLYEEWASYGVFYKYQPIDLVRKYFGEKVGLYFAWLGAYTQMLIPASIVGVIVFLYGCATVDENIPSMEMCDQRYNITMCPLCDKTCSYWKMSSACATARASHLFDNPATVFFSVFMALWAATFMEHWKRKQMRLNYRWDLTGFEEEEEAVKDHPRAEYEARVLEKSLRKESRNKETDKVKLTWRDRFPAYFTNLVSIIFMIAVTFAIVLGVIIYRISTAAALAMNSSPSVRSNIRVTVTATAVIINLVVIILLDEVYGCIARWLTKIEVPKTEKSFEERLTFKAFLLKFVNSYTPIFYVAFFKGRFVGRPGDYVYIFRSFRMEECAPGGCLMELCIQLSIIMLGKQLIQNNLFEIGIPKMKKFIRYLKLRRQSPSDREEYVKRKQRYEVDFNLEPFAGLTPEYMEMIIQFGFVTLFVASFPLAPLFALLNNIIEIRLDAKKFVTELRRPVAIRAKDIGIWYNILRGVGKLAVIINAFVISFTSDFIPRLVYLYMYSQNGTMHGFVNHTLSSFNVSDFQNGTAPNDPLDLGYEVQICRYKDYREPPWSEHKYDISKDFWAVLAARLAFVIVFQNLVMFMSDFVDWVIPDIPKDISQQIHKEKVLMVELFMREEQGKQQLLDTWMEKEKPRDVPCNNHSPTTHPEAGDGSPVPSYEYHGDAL

ANO1 (TMEM16A; mTMEM16A) [2] = molecular target: T1, ANO1 (TMEM16A; mTMEM16A); format: biochemical; details: +100 mV, 270 nM Ca2+; wild-type reference of the mutant set
ANO1 (TMEM16A; mTMEM16A) [3] = molecular target: T1, ANO1 (TMEM16A; mTMEM16A); format: cell-based

With `CCCCCCCC(=O)OC[C@H](COP(=O)(O)O[C@H]1[C@H](O)[C@@H](OP(=O)(O)O)[C@H](OP(=O)(O)O)[C@@H](OP(=O)(O)O)[C@H]1O)OC(=O)CCCCCCC` [diC8-PI(3,4,5)P3] the “% current increase at 10 μM” value (ANO1 (TMEM16A; mTMEM16A) [1]) was 31 ± 12%.
`CCCCCCCC(=O)OC[C@H](COP(=O)(O)O[C@@H]1[C@H](O)[C@H](O)[C@@H](OP(=O)(O)O)[C@H](OP(=O)(O)O)[C@H]1O)OC(=O)CCCCCCC` [diC8-PI(4,5)P2] was tested, and the “ΔIPIP2 (% current increase) at 10 μM” value (ANO1 (TMEM16A; mTMEM16A) [2]) was 89.9 ± 16.8% and the EC50 (ANO1 (TMEM16A; mTMEM16A) [3]) was 1240 nM.
